Results on 3 substances are retold here after article PMC6158096 (Molecular microbiology, 2018).

“And” between values parts separate entries of the source, which are not always exact repeats. Equal values may be shown once. Read-outs that look alike come from different tables or passages of the source. Ends that are not written are not given here. * marks the point of attachment. FITC = O=C1OC2(c3ccc(O)cc3Oc3cc(O)ccc32)c2ccc(NC(=S)*)cc21; Ahx = NCCCCCC(=O)O

One may read the Kd as the constant that tells how readily two partners part at equilibrium. A higher Kd goes with a looser complex.

The test system of series [1] is CcpA. Description: Fluorescence polarization: FITC-labeled XrpA-N1 binding to CcpA. Details: species or system Streptococcus mutans. The following applies: 10 nM probe, increasing purified protein, 10 μM sXIP. In general terms: In fluorescence polarisation assays a small probe gives low polarisation when free and higher when bound to something large.
Series [2] deals with SppA (SMU.508). The experiment in a line: Fluorescence polarization: FITC-labeled XrpA-N1 binding to SppA. The conditions noted are these: 10 nM probe, increasing purified protein, 10 μM sXIP. Details: species or system Streptococcus mutans.
The test system of series [3] is ComR;sXIP (ComS 11-17) (Streptococcus mutans UA159;Streptococcus mutans). Description: fluorescence polarization.
For series [4] the test system is unchanged. Description: fluorescence polarization. The source holds these as a separate data set.
The subject of series [5] is ComR. The experiment in a line: Fluorescence polarization: FITC-labeled XrpA-N1 direct binding to ComR. Details: species or system Streptococcus mutans. The following applies: 10 nM FITC-labeled XrpA-N1, increasing concentrations of sXIP.

In the case of “{FITC-Ahx}-MIQNCISILRHFLITLK [FITC-labeled XrpA-N1]”, the “interaction of FITC-labeled XrpA-N1 with CcpA” value in series [1] was “neither showed any ability to interact”. The “interaction of FITC-labeled XrpA-N1 with SppA” value in series [2] was “neither showed any ability to interact”. In the case of “ATGGGACATTTATGTCCTGTCCCCCACAGGACATAAATGTCCCAT [PcomX ECom-box stem-loop probe]”, the equilibrium dissociation constant (Kd) is 169 nM and 165 nM in series [3]; 147 nM in series [4]. Turning to GLDWWSL [sXIP], the “effect on fluorescent XrpA-N1 affinity for ComR” value in series [5] is reported as “no effect”.
